Data published in ChEMBL document CHEMBL5500352, “ML162 derivatives incorporating a naphthoquinone unit as ferroptosis/apoptosis inducers: Design, synthesis, anti-cancer activity, and drug-resistance reversal evaluation” (Eur J Med Chem, 2024).
Active and inactive are the calls of the source. The calls are words filed in the database; no cut-off is given here.

Key:
HT-1080 [1] = assay: Inhibition of colony formation in human HT-1080 cells incubated for 48 hrs followed by replacement with fresh media and measured after 12 days by crystal violet staining based assay; type: functional, cell-based; conditions: dose 1-2 µM
HT-1080 [2] = assay: Induction of ferroptosis in human HT-1080 cells assessed as accumulation of lipid peroxidation at 1 to 4 uM after 12 hrs by BODIPYTM 581/591C11 probe based flow cytometry assay; type: functional, cell-based; conditions: dose 1-4 µM
[3] = Selectivity index, ratio of IC50 for human HPNE cells to IC50 for human HT-1080 cells
[4] = target: T1, Phospholipid hydroperoxide glutathione peroxidase GPX4 (Homo sapiens) (UniProt P36969); assay: Induction of GPX4 degradation in human HT-1080 cells after 24 hrs by Western blotting assay; type: cell-based; conditions: dose 1-4 µM
T1 sequence (whole entry): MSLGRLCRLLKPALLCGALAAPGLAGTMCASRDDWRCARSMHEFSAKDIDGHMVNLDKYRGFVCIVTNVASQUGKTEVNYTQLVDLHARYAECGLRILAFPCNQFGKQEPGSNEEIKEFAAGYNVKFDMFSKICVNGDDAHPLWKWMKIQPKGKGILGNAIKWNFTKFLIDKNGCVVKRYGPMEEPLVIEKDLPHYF

HT-1080 [5] = assay: Cytotoxicity against human HT-1080 cells assessed as cell viability at 4 uM in presence of fer-1 (reference value: 30%); type: functional; conditions: read-out: Activity
HT-1080 [6] = assay: Antitumor activity against human HT-1080 cells xenografted in ip dosed BALB/c nude mouse assessed as tumor growth inhibition administered once daily for 19 days and measured every 2 days; type: functional, organism-based; conditions: dose 20-40 mg/kg, time 19.0 day
[7] = test system: AMG 510-resistant MIA PaCa-2; assay: Cytotoxicity against human AAMG 510-resistant MIA PaCa-2 cells at 10 uM; type: functional, cell-based
HT-1080 [8] = assay: Induction of apoptosis in human HT-1080 cells assessed as early apoptotic cells at 4 uM incubated for 24 hrs by Annexin-V FITC/PI staining based flow cytometry analysis (reference value: 1.85%); type: functional
[9] = Potentiation of AMG510 induced cytotoxicity in human AMG 510-resistant MIA PaCa-2 cells assessed as reduction in cell survival rate at 1 uM in presence of 10 nM AMG510 (reference value: 90%); type: functional
HT-1080 [10] = assay: Induction of ferroptosis in human HT-1080 cells assessed as appearance of ruptured mitochondria at 4 uM after 24 hrs by transmission electron microscope analysis; type: functional, cell-based
HT-1080 [11] = assay: Induction of ferroptosis in human HT-1080 cells assessed as decrease in mitochondrial crests at 4 uM after 24 hrs by transmission electron microscope analysis; type: functional, cell-based
HT-1080 [12] = assay: Induction of apoptosis in human HT-1080 cells assessed as viable cells at 4 uM incubated for 24 hrs by Annexin-V FITC/PI staining based flow cytometry analysis (reference value: 92.5%); type: functional; conditions: read-out: Activity
HT-1080 [13] = assay: Antitumor activity against human HT-1080 cells xenografted in ip dosed BALB/c nude mouse assessed as increase in 4-HNE level administered once daily for 19 days and measured every 2 days by immunohistochemistry assay; type: functional, organism-based; conditions: dose 20-40 mg/kg, time 19.0 day
[14] = target: T1, Phospholipid hydroperoxide glutathione peroxidase GPX4 (Homo sapiens); assay: Induction of GPX4 degradation in human HT-1080 cells at 2 uM after 24 hrs by Western blotting assay; type: cell-based
[15] = Toxicity in BALB/c nude mouse xenografted with human HT-1080 cells assessed as change in spleen morphology at 20 to 40 mg/kg, ip administered once daily for 19 days and measured every 2 days by H and E staining based assay; type: organism-based; conditions: in vivo, 456 h, dose 20-40 mg/kg, time 19 day
[16] = Potentiation of AMG510 induced cytotoxicity in human AMG 510-resistant MIA PaCa-2 cells assessed as reduction in cell survival rate at 5 uM in presence of 10 nM AMG510 (reference value: 90%); type: functional
HT-1080 [17] = assay: Induction of apoptosis in human HT-1080 cells assessed as viable cells at 1 uM incubated for 24 hrs by Annexin-V FITC/PI staining based flow cytometry analysis (reference value: 92.5%); type: functional; conditions: read-out: Activity
HT-1080 [18] = assay: Induction of ferroptosis in human HT-1080 cells assessed as mitochondrial swelling at 4 uM after 24 hrs by transmission electron microscope analysis; type: functional, cell-based
[19] = test system: AMG 510-resistant MIA PaCa-2; assay: Cytotoxicity against human AAMG 510-resistant MIA PaCa-2 cells upto 5 uM; type: functional, cell-based
HT-1080 [20] = assay: Induction of apoptosis in human HT-1080 cells assessed as late apoptotic cells at 1 uM incubated for 24 hrs by Annexin-V FITC/PI staining based flow cytometry analysis (reference value: 1.66%); type: functional
HT-1080 [21] = assay: Antitumor activity against human HT-1080 cells xenografted in ip dosed BALB/c nude mouse assessed as reduction in Bcl-2 level administered once daily for 19 days and measured every 2 days by immunohistochemistry assay; type: functional, organism-based; conditions: dose 20-40 mg/kg, time 19.0 day
[22] = Cytotoxicity against human HPNE cells; type: toxicity, cell-based
[23] = Toxicity in BALB/c nude mouse xenografted with human HT-1080 cells assessed as change in liver morphology at 20 to 40 mg/kg, ip administered once daily for 19 days and measured every 2 days by H and E staining based assay; type: organism-based; conditions: in vivo, 456 h, dose 20-40 mg/kg, time 19 day
[24] = Toxicity in BALB/c nude mouse xenografted with human HT-1080 cells assessed as change in kidney morphology at 20 to 40 mg/kg, ip administered once daily for 19 days and measured every 2 days by H and E staining based assay; type: organism-based; conditions: in vivo, 456 h, dose 20-40 mg/kg, time 19 day
HT-1080 [25] = assay: Induction of ferroptosis in human HT-1080 cells assessed as accumulation of intracellular ROS level at 4 uM after 12 hrs by DCFH-DA staining based confocal laser scanning microscopy analysis; type: functional, cell-based
HT-1080 [26] = assay: Induction of apoptosis in human HT-1080 cells assessed as necrotic cells at 2 uM incubated for 24 hrs by Annexin-V FITC/PI staining based flow cytometry analysis (reference value: 3.98%); type: functional
HT-1080 [27] = assay: Antitumor activity against human HT-1080 cells xenografted in BALB/c nude mouse assessed as tumor growth inhibition at 40 mg/kg, ip administered once daily for 19 days and measured every 2 days; type: functional; conditions: HT-1080, 456 h, time 19 day, read-out: TGI
[28] = Toxicity in BALB/c nude mouse xenografted with human HT-1080 cells assessed as necrosis at 20 to 40 mg/kg, ip administered once daily for 19 days and measured every 2 days by H and E staining based assay; type: organism-based; conditions: in vivo, 456 h, dose 20-40 mg/kg, time 19 day
HT-1080 [29] = assay: Induction of apoptosis in human HT-1080 cells assessed as necrotic cells at 1 uM incubated for 24 hrs by Annexin-V FITC/PI staining based flow cytometry analysis (reference value: 3.98%); type: functional
HT-1080 [30] = assay: Antitumor activity against human HT-1080 cells xenografted in ip dosed BALB/c nude mouse assessed as reduction in GPX4 level administered once daily for 19 days and measured every 2 days by immunohistochemistry assay; type: functional, organism-based; conditions: dose 20-40 mg/kg, time 19.0 day
[31] = target: T1, Phospholipid hydroperoxide glutathione peroxidase GPX4 (Homo sapiens); assay: Induction of GPX4 degradation in human HT-1080 cells at 2 to 4 uM after 24 hrs in presence of MG132 by Western blotting assay; type: cell-based; conditions: dose 2-4 µM
HT-1080 [32] = assay: Induction of apoptosis in human HT-1080 cells assessed as decrease in Bcl-2 level after 24 hrs by Western blotting analysis; type: functional, cell-based; conditions: dose 0.5-4 µM
HT-1080 [33] = assay: Cytotoxicity against human HT-1080 cells incubated for 48 hrs by CCK-8 assay; type: functional, cell-based; conditions: HT-1080, 48 h

Activity [4]: Dose-Dependent Effect
Activity [14]: Active
Activity [31]: inactive
SMILES: O=C(CCCCCNC1=CC(=O)c2ccccc2C1=O)Nc1ccc(N(C(=O)CCl)C(C(=O)NCCc2ccccc2)c2cccs2)cc1 (stereo not drawn)
inhibition (HT-1080 [1]): Dose-Dependent Effect
Activity (HT-1080 [2]): Active
Ratio IC50 [3]: 5.96
viability at 4 µM (HT-1080 [5]): 66%
Activity (HT-1080 [6]): Dose-Dependent Effect
Activity [7]: Active
Activity (HT-1080 [8]): 9.04%
Activity [9]: ~60%
Activity (HT-1080 [10]): Active
Activity (HT-1080 [11]): Active
viability at 4 µM (HT-1080 [12]): 79.9%
Activity (HT-1080 [13]): Dose-Dependent Effect
Activity [15]: Non-Toxic
Activity [16]: ~10%
viability at 1 µM (HT-1080 [17]): 90.7%
Activity (HT-1080 [18]): Active
Activity [19]: inactive
Activity (HT-1080 [20]): 3.11%
Activity (HT-1080 [21]): Dose-Dependent Effect
IC50 [22]: 9.55 µM
Activity [23]: Non-Toxic
Activity [24]: Non-Toxic
Activity (HT-1080 [25]): Active
Activity (HT-1080 [26]): 4.02%
inhibition in vivo at 40 mg/kg (HT-1080 [27]): 63%
Activity [28]: Non-Toxic
Activity (HT-1080 [29]): 2.32%
Activity (HT-1080 [30]): Dose-Dependent Effect
Activity (HT-1080 [32]): Dose-Dependent Effect
IC50 (HT-1080 [33]): 1.6 µM
